Measurements from patent US20250026778A1 (TIUMBIO CO., LTD., priority 2021, published 2025).
Like-named read-outs stand apart in the source and are kept apart here. Blank lines part the entries; values can stand above or below the molecule they belong to.

Molecular target: T1, his-galectin-3 (Homo sapiens, UniProt P17931)
T1 construct: purchased Abcam
Test: TR-FRET assay (in vitro galectin-3 binding inhibitory activity test)
Settings: compound at 20 μM, 60 nM his-galectin-3, 15 nM biotin-ASF
Procedure: TR-FRET Assay (In Vitro Galectin-3 Binding Inhibitory Activity Test)
TR-FRET assay was performed in ½ Area Plate-96 (PerkinElmer). Final concentrations of components in the assay were 60 nM his-galectin-3 (Abcam), 15 nM biotin-ASF (Axxora), 2 nM Mab anti-6×His Tb (Cisbio) and 20 nM SA-d2 (Cisbio). The reaction was performed in a buffer containing 25 mM HEPES, 100 mM NaCl, 0.005% Tween 20 and 0.05% BSA. 20 μL his-galectin-3 and 1 μL compound were mixed first, and then 20 μL biotin-ASF, 5 μL anti-His Tb and 5 μL SA-d2 were added in order. After incubation for at least 3.5 hours at RT, TR-FRET signals were measured at 615/665 nm […] wavelengths using a VICTOR Nivo (PerkinElmer). The positive control used DMSO instead of the compound, and the negative control excluded ASF-biotin. N-acetyl-D-lactosamine (LacNAc), an endogenous ligand unit of galectin-3, was evaluated together as a control substance to compare galectin-3 binding inhibitory activity.

[1] = Table 1, read-out: % Inhibitory activity (at 20 μM)
[2] = Table 2, read-out: % Inhibitory activity (at 20 μM)
[3] = read-out: % Inhibitory activity (at 20 μM), Table 1

T1 sequence (P17931 whole entry): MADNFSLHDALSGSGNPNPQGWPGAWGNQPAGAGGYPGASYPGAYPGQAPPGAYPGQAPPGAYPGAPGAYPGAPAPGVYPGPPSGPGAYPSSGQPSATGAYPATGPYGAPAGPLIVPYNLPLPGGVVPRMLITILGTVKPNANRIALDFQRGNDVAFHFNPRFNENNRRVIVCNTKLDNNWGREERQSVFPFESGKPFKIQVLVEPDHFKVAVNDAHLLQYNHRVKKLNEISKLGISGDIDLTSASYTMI

% Inhibitory activity (at 20 μM) (Table 1): D (inhibition rate was less than 25%)
Compound: COc1ccc2c(c1)CCC1(O2)O[C@H](CO)[C@H](O)[C@H](n2cc(-c3cc(F)c(F)c(F)c3)nn2)[C@H]1O (single isomer, unassigned) [Compound A10, (3′R,4'S,5′R,6′R)-6′-(hydroxymethyl)-6-methoxy-4′-(4-(3,4,5-trifluorophenyl)-1H-1,2,3-triazol-1-yl)-3′,4′,5′,6′-tetrahydrospiro[chromane-2,2′-pyran]-3′,5′-diol]

inhibition at 20 µM [1]: 25 to 50%
Compound: COc1ccc2c(c1)CCC1(O2)O[C@H](CO)[C@H](O)[C@H](n2cc(-c3cc(F)c(F)c(F)c3)nn2)[C@H]1O (single isomer, unassigned) [Compound A11, (3′R,4'S,5′R,6′R)-6′-(hydroxymethyl)-6-methoxy-4′-(4-(3,4,5-trifluorophenyl)-1H-1,2,3-triazol-1-yl)-3′,4′,5′,6′-tetrahydrospiro[chromane-2,2′-pyran]-3′,5′-diol]

Compound: O=C1CCCC2(N1)O[C@H](CO)[C@H](O)[C@H](n1cc(-c3cc(F)c(F)c(F)c3)nn1)[C@H]2O (single isomer, unassigned) [Compound A89]
inhibition at 20 µM [1]: < 25%

Compound: CC(C(=O)N[C@@H]1CCO[C@]12O[C@H](CO)[C@H](O)[C@H](n1cc(-c3cc(F)c(F)c(F)c3)nn1)[C@H]2O)c1cccc(Cl)c1 (single isomer, unassigned) [Compound A167]
% Inhibitory activity (at 20 μM) (Table 2): C (inhibition rate was 25%˜ to 50%˜ (exclusive of 50%))

Compound: CC(C(=O)N[C@@H]1CCO[C@]12O[C@H](CO)[C@H](O)[C@H](n1cc(-c3cc(F)c(F)c(F)c3)nn1)[C@H]2O)c1cccc(Cl)c1 (single isomer, unassigned) [Compound A168]
% Inhibitory activity (at 20 μM) (Table 2): B (inhibition rate was 50%0 to 7500 (exclusive of 75%))

inhibition at 20 µM [2]: 50 to 75%
Compound: CC1CO[C@@]2(C1)O[C@H](CO)[C@H](O)[C@H](n1cc(-c3cc(F)c(F)c(F)c3)nn1)[C@H]2OC(=O)c1ccccn1 (single isomer, unassigned) [Compound A235]

inhibition at 20 µM [2]: 50 to 75%
Compound: CC1CO[C@@]2(C1)O[C@H](CO)[C@H](O)[C@H](n1cc(-c3cc(F)c(F)c(F)c3)nn1)[C@H]2OCC(=O)O (single isomer, unassigned) [Compound A236]

Compound: OC[C@H]1O[C@@]2(CCCO2)C(O)[C@@H](n2cc(-c3cc(F)c(F)c(F)c3)nn2)[C@H]1O (stereo in doubt) [Compound A41, (5S,7R,8R,9S,10R)-7-(hydroxymethyl)-9-(4-(3,4,5-trifluorophenyl)-1H-1,2,3-triazol-1-yl)-1,6-dioxaspiro[4.5]decane-8,10-diol]
inhibition at 20 µM [3]: < 25%

Compound: O=C(OC1[C@@H](n2cc(-c3cc(F)c(F)c(F)c3)nn2)[C@@H](O)[C@@H](CO)O[C@@]12CCCO2)c1cccnc1 (stereo in doubt) [Compound A75, (5S,7R,8R,9S,10S)-8-hydroxy-7-(hydroxymethyl)-9-(4-(3,4,5-trifluorophenyl)-1H-1,2,3-triazol-1-yl)-1,6-dioxaspiro[4.5]decan-10-yl nicotinate]
inhibition at 20 µM [3]: 25 to 50%
inhibition at 20 µM (read-out: % Inhibitory activity (at 20 μM), Table 3, found values): 32%

inhibition at 20 µM [1]: < 25%
inhibition at 20 µM (Table 3, found values, read-out: % Inhibitory activity (at 20 μM)): 21.8%
Compound: COc1ccc2c(c1)CC[C@]1(O2)O[C@H](CO)[C@H](O)[C@H](OCc2cc3c(F)c(F)ccc3oc2=O)[C@H]1O [Compound A08, 3-((((2R,3′R,4'S,5'S,6′R)-3′,5′-dihydroxy-6′-(hydroxymethyl)-6-methoxy-3′,4′,5′,6′-tetrahydrospiro[chromane-2,2′-pyran]-4′-yl)oxy)methyl)-5,6-difluoro-2H-chromen-2-one]

inhibition at 20 µM [1]: < 25%
Compound: O=c1oc2ccc(F)c(F)c2cc1CO[C@H]1[C@@H](O)[C@@H](CO)O[C@@]2(CCCO2)[C@@H]1O [Compound A09, 3-((((5S,7R,8S,9S,10R)-8,10-dihydroxy-7-(hydroxymethyl)-1,6-dioxaspiro[4.5]decan-9-yl)oxy)methyl)-5,6-difluoro-2H-chromen-2-one]
